According to patent US9314485B2, “Use of PI3K M-TOR and AKT inhibitors to induce FOXP3 expression and generate regulatory T cells” (Medical Research Council, priority 2006, dated 2016):

Key:
[1] = tested on: naive CD62LhiCD4+CD25− LN T cells; assay: Foxp3 induction in newly activated naive CD4 T cells (intracellular staining); assay type: cell-based, mouse; settings: for number of cell divisions (CFSE): 24-48 hours after addition at 18 hours; for % Foxp3+ cells, activation with anti-TCR only: no costimulation; for % Foxp3+ cells, activation with anti-TCR only / % Foxp3+ cells, activation with anti-TCR + anti-CD28: average of two experiments; for % Foxp3+ cells, activation with anti-TCR + anti-CD28: with costimulation
Procedure: Mouse strains, cell sorting and culture Animal work was carried out according the Animals (Scientific Procedures) Act, UK. Lymph node (LN) cells were stained, analysed and sorted by flow cytometry as described (Cobb et al 2005 J. Exp. Med. 201: 1367-1373). Intracellular staining for Foxp3 protein was done as advised by the manufacturers (eBiosciences.com). The phosphorylation syatus of S6 ribosomal protein was determined using anti pS6 Ser235/236 (Cellsignaling cat.no. 2211, http://www.cellsignal.com) using the eBioscience Foxp3 staining kit and anti rabbit IgG-FITC or IgG-Cy5 (Jackson Immunoresearch). For induction of Foxp3 expression, sorted LN CD4+ CD25− CD62Lhi T cells were cultured at 1-3×10^6/ml with plate bound anti-TCRβ. […] After 18 hours the cells were either left in place for continued TCR stimulation or moved to uncoated wells with the indicated additives. To assess regulatory function, CD4 T cells cultured as indicated were titrated into round bottom wells containing either 1×10^5 CFSE labeled total LN cells or 5×10^4 CFSE labeled CD4^+ CD25^− T cells and 1×10^5 mitomycin-C treated (25 μg/ml, 20 min, 37° C.) T cell depleted splenocytes with the indicated concentrations of anti CD3 (2C11, Pharmingen). CD4 T cell CFSE profiles were recorded between 48 and 72 hours later.
Mice, Cell Sorting and Culture. Animal work was carried out according to the Animals (Scientific Procedures) Act, UK. Lymph node (LN) cells or thymocytes from wild type were stained, analysed and sorted by flow cytometry as described (Thompson et al., 2007 Immunity VoI 26 pp 335-344) from wild type (C57BL/6, BALB/c or C57BL/6×129) mice or from Rag1 deficient H2^b AND TCR transgenic mice. Antigen presenting cells were derived from bone marrow in the presence of GM-CSF and incubated with antigenic peptide. Intracellular staining for Foxp3 protein was done as advised by the manufacturers (eBiosciences.com). The phosphorylation status of S6 ribosomal protein was determined using anti pS6 Ser235/236 (Cell Signaling cat.no. 2211, http://www.cellsignal.com) using the eBioscience Foxp3 staining kit and anti rabbit IgG-FITC or IgG-Cy5 (Jackson ImmunoResearch). […] After 18 hours the cells were either left in place for continued TCR stimulation or moved to uncoated wells with the indicated additives. To assess regulatory function, CD4 T cells cultured as indicated were titrated into round bottom wells containing either 1×10^5 CFSE labeled total LN cells or 5×10^4 CFSE labeled CD4^+CD25^− T cells and 1×10^5 mitomycin-C treated (25 μg/ml, 20 min, 37° C.) T cell depleted splenocytes with the indicated concentrations of anti CD3 (2C11, Pharmingen). CD4 T cell CFSE profiles were recorded between 48 and 72 hours later.

S6 ribosomal protein = S6 ribosomal protein phosphorylation (pS6) by intracellular staining/immunoblot; assay type: cell-based, mouse; settings: 18 h activated cells; rapamycin 25 nM, Ly294002 10 g/ml as printed; within one hour
Procedure: Mouse strains, cell sorting and culture Animal work was carried out according the Animals (Scientific Procedures) Act, UK. Lymph node (LN) cells were stained, analysed and sorted by flow cytometry as described (Cobb et al 2005 J. Exp. Med. 201: 1367-1373). Intracellular staining for Foxp3 protein was done as advised by the manufacturers (eBiosciences.com). The phosphorylation syatus of S6 ribosomal protein was determined using anti pS6 Ser235/236 (Cellsignaling cat.no. 2211, http://www.cellsignal.com) using the eBioscience Foxp3 staining kit and anti rabbit IgG-FITC or IgG-Cy5 (Jackson Immunoresearch). […] CD4 T cell CFSE profiles were recorded between 48 and 72 hours later.
To monitor the activity of the PI3K/mTOR axis in response to TCR signaling, TCR signal withdrawal and treatment with rapamycin and Ly294002, we analysed the level of phosphorylated S6 ribosomal protein (pS6), the target of p70 S6 kinase, which is directly regulated by mTOR. […]
Mice, Cell Sorting and Culture. […] Lymph node (LN) cells or thymocytes from wild type were stained, analysed and sorted by flow cytometry as described (Thompson et al., 2007 Immunity VoI 26 pp 335-344) from wild type (C57BL/6, BALB/c or C57BL/6×129) mice or from Rag1 deficient H2^b AND TCR transgenic mice. […] CD4 T cell CFSE profiles were recorded between 48 and 72 hours later.

SMILES: O=c1cc(N2CCOCC2)oc2c(-c3ccccc3)cccc12 [Ly294002, 2-(4-Morpholinyl)-8-phenyl-4H-1-benzopyran-4-one]
- number of cell divisions (CFSE) [1]: slight reduction
- number of cell divisions (CFSE) ([1]; listed as LY294002): slightly reduced
- percentage of cells expressing Foxp3 ([1]; added 18 hours after activation with TCR signal deprivation, read within 24-48 hours): 26.9±11.4%
- % Foxp3+ cells, activation with anti-TCR only [1]: 4%
- % Foxp3+ cells, activation with anti-TCR only ([1]; listed as LY294002): 4% Foxp3^+
- Foxp3 expression in control cultures, TCR signal deprived cultures subtracted ([1]; serum free AIM-V medium, without anti TGFβ and SB431542, 24-48 hours / 2 days): 21.5±4.0%
- % Foxp3+ cells, activation with anti-TCR + anti-CD28 [1]: 44%
- % Foxp3+ cells, activation with anti-TCR + anti-CD28 ([1]; listed as LY294002): 44% Foxp3^+
- S6 phosphorylation (pS6) (S6 ribosomal protein): completely removed
